Counter-ions that a name gives are not always drawn. Calls of active or inactive are those of the source. The calls are words filed in the database; no cut-off is given here.
Tests used:
[1] = molecular target: T1, DNA topoisomerase 1 (Homo sapiens) (UniProt P11387); test: Inhibition of human recombinant topoisomerase 1-mediated relaxation of supercoiled pBR322 DNA at 20 uM after 30 mins using ethidium bromide staining by transillumination analysis
T1 sequence (whole entry): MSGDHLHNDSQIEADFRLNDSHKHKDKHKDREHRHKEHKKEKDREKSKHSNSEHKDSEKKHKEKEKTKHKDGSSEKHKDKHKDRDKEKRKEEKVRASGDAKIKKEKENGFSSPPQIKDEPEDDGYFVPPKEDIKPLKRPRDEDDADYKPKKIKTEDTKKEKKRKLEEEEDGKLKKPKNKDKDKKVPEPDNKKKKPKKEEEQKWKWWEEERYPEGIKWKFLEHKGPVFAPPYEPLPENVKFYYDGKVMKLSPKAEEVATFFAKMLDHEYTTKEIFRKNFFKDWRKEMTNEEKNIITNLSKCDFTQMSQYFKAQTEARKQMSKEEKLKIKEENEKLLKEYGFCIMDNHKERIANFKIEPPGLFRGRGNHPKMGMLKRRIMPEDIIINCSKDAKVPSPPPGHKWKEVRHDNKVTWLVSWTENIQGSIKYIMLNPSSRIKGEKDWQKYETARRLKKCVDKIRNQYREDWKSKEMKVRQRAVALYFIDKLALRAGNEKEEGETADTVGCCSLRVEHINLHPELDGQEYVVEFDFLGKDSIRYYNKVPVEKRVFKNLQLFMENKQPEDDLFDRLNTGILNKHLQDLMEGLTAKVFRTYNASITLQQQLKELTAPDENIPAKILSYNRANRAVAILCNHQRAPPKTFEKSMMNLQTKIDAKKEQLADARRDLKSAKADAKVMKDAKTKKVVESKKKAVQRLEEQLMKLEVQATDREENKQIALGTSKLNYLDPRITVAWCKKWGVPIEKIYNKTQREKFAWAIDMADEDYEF

[2] = molecular target: DNA topoisomerase 2-alpha (Homo sapiens) (UniProt P11388); test: Inhibition of human topoisomerase 2alpha-mediated relaxation of supercoiled pBR322 DNA at 10 uM after 30 mins using ethidium bromide staining by transillumination analysis
DNA topoisomerase 2-alpha (Homo sapiens), sequence (P11388 whole entry): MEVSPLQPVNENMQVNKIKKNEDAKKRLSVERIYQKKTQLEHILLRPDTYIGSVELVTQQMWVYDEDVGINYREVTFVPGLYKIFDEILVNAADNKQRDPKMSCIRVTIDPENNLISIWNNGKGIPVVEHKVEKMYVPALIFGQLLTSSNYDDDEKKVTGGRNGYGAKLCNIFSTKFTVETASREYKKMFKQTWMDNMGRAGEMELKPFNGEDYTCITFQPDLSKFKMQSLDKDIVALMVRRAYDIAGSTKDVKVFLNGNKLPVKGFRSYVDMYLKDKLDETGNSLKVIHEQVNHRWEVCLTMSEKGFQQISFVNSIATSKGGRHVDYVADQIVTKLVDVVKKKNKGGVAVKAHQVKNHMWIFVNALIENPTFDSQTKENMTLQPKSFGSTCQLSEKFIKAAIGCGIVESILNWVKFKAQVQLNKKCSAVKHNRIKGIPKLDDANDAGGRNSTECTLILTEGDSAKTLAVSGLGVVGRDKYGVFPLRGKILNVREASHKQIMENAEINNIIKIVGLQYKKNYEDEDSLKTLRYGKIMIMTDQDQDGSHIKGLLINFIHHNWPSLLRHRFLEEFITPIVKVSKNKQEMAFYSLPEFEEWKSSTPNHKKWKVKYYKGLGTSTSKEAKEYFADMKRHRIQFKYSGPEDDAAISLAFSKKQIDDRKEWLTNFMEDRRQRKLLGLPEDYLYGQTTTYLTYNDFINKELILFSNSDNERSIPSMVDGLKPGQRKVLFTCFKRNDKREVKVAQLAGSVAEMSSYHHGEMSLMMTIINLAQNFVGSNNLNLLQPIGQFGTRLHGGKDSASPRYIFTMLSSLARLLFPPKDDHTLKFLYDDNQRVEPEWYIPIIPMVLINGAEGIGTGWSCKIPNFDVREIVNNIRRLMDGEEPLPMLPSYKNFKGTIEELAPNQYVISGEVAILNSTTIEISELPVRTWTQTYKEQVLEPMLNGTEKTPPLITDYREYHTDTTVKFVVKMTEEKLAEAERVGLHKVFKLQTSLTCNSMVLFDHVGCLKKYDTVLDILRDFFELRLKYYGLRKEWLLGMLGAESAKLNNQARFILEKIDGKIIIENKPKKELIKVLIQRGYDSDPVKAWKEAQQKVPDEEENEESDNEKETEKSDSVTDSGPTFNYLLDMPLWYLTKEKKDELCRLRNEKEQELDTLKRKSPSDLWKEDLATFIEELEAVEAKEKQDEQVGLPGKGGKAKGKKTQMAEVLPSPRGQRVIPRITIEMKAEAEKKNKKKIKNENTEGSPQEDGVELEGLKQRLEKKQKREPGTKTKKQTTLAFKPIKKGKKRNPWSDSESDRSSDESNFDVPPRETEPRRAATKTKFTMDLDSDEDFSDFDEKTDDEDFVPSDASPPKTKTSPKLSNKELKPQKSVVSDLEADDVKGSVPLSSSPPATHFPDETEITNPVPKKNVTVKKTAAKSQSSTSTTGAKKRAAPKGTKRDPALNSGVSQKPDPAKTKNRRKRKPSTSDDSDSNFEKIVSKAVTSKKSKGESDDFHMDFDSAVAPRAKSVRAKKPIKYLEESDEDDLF

[3] = molecular target: DNA topoisomerase 2-alpha (Homo sapiens) (UniProt P11388); test: Inhibition of human topoisomerase 2alpha-mediated relaxation of supercoiled pBR322 DNA at 20 uM after 30 mins using ethidium bromide staining by transillumination analysis
[4] = molecular target: DNA topoisomerase 2-alpha (Homo sapiens) (UniProt P11388); test: Inhibition of human topoisomerase 2alpha-mediated relaxation of supercoiled pBR322 DNA at 100 uM after 30 mins using ethidium bromide staining by transillumination analysis
HeLa = test: Cytotoxicity against human HeLa cells after 2 days; details: 48 h
HCT-116 = test: Cytotoxicity against human HCT116 cells after 2 days; assay type: functional, cell-based; details: HCT-116, 48 h
DU-145 = test: Cytotoxicity against human DU145 cells after 2 days; assay type: functional, cell-based; details: DU-145, 48 h
MDA-MB-231 = test: Cytotoxicity against human MDA-MB-231 cells after 2 days; details: MDA-MB-231, 48 h
HL-60 = test: Cytotoxicity against human HL60 cells after 2 days; assay type: functional, cell-based; details: HL-60, 48 h
[5] = molecular target: DNA topoisomerase 2-alpha (Homo sapiens) (UniProt P11388); test: Inhibition of human topoisomerase 2alpha-mediated ATP hydrolysis at 400 uM after 30 mins by malachite green ATPase assay
[6] = molecular target: DNA topoisomerase 2-alpha (Homo sapiens) (UniProt P11388); test: Inhibition of human topoisomerase 2alpha-mediated relaxation of pUC18 DNA at 400 uM after 30 mins by malachite green ATPase assay in presence of 1 to 4 mM of ATP

| SMILES | inhibition [1] [%] | inhibition [2] [%] | inhibition [3] [%] | inhibition [4] [%] | IC50 (HeLa) [µM] | IC50 (HCT-116) [µM] | IC50 (DU-145) [µM] | IC50 (MDA-MB-231) [µM] | IC50 (HL-60) [µM] | inhibition [5] [%] | inhibition [6] |
| --- | --- | --- | --- | --- | --- | --- | --- | --- | --- | --- | --- |
| O=c1c2ccccc2oc2cc(OCC(O)CSCCO)cc(O)c12 (centres undefined) | 0 | 26.3 | 49.1 | 63.8 | 9.15 | 23.9 | 3.47 | 5.13 | 19.9 |  |  |
| CC[C@@]1(O)C(=O)OCc2c1cc1n(c2=O)Cc2cc3ccccc3nc2-1 [CAMPTOTHECIN] |  |  |  |  |  | 3.97 | 0.31 | 0.97 |  |  |  |
| CO[C@@H]1[C@@H](OC(N)=O)[C@@H](O)[C@H](Oc2ccc3c(O)c(NC(=O)c4ccc(O)c(CC=C(C)C)c4)c(=O)oc3c2C)OC1(C)C |  |  |  |  |  |  |  |  |  | 60.4 |  |
| COc1cccc2c1C(=O)c1c(O)c3c(c(O)c1C2=O)C[C@@](O)(C(=O)CO)C[C@@H]3O[C@H]1C[C@H](N)[C@H](O)[C@H](C)O1 [DOXORUBICIN HYDROCHLORIDE] |  |  |  |  |  | 6.81 | 2.47 |  | 0.32 |  |  |
| O=c1c2ccccc2oc2cc(OCC(O)CSCCCO)cc(O)c12 (centres undefined) | 0 | 17.5 | 26.1 | 68 | 12.3 | > 100 | 40.9 | 8.4 | 27.8 |  |  |
| O=c1c2ccccc2oc2cc(OCC(O)CN(CCO)CCO)cc(O)c12 (centres undefined) | 0 | 17.4 | 45.8 | 100 | 15.2 | 56.7 | 1.59 | 14.9 | 15.9 |  |  |
| CCCNCC(O)COc1cc(O)c2c(=O)c3ccccc3oc2c1 (centres undefined) | 0 | 41.2 | 70 | 100 | 11.6 | 23.7 | 0.76 | 4.11 | 4.15 | 28.5 | inactive |
| COc1cc([C@@H]2c3cc4c(cc3[C@@H](O[C@@H]3O[C@@H]5CO[C@@H](C)O[C@H]5[C@H](O)[C@H]3O)[C@H]3COC(=O)[C@H]23)OCO4)cc(OC)c1O [ETOPOSIDE] |  | 26 |  | 77.1 | 2.36 | 9.5 | 2.19 | 1.23 | 1.28 |  |  |
| O=c1c2ccccc2oc2cc(OCC(O)CNCCCO)cc(O)c12 (centres undefined) | 3.45 | 38.7 | 62.8 | 100 | 19.2 | 31.3 | 1.6 | 6.97 | 8.87 |  |  |
| O=c1c2ccccc2oc2cc(OCC(O)CNCCO)cc(O)c12 (centres undefined) | 1.08 | 35.5 | 70.3 | 100 | 8.43 | 20 | 4.03 | 3.55 | 9.87 |  |  |
| O=c1c2ccccc2oc2cc(OCC(O)COCCO)cc(O)c12 (centres undefined) | 0 | 23.4 | 43.7 | 89.2 | 15.4 | 46.7 | 15.6 | 10.4 | 16.6 |  |  |
